Measurements taken from paper PMC7114863 (Journal of Hepatology, 2009).

How the values were obtained:
[1] = system: J6/JFH chimeric HCV reporter virus (J6/JFH-Rluc2a-FLAG); assay: Antiviral assay with HCVcc virus in Huh-Lunet cells; assay type: cell-based, HCV genotype 2a
Cytostatic assay = assay type: cell-based; conditions: human, HCV replicon-containing cells (Huh 5-2, HuH6 or Huh 9-13)
[2] = system: HCV subgenomic 1b replicon; assay: Anti-HCV subgenomic replicon assay; assay type: cell-based
[3] = system: bovine viral diarrhea virus (BVDV, flaviviridae); assay: Antiviral assay with BVDV; assay type: cell-based
[4] = system: HuH6 replicon-containing cells; assay: Drug combinations in HuH6 cells; assay type: cell-based, HCV; conditions: checkerboard
[5] = system: HCV replicon in Huh 9-13 cells; assay: HCV replicon clearance-rebound assay; assay type: cell-based
YFV-17D (flaviviridae) = assay type: cell-based, yellow fever virus
HIV-1 (IIIB) = assay: Antiviral assay, HIV-1; assay type: cell-based; conditions: data not shown
[6] = system: HIV-2 (ROD, retroviridae); assay: Antiviral assay, HIV-2; assay type: cell-based; conditions: data not shown
[7] = system: herpes simplex virus-1 (KOS strain, TK^− KOS ACV^r); assay: Antiviral assay, herpes simplex virus-1; assay type: cell-based; conditions: data not shown
[8] = system: herpes simplex virus-2 (G strain, herpesviridae); assay: Antiviral assay, herpes simplex virus-2; assay type: cell-based; conditions: data not shown
[9] = system: influenza A virus (H1N1 and H3N2); assay: Antiviral assay, influenza A virus; assay type: cell-based; conditions: data not shown
[10] = system: influenza B virus (orthomyxoviridae); assay: Antiviral assay, influenza B virus; assay type: cell-based; conditions: data not shown
[11] = system: vaccinia virus (poxviridae); assay: Antiviral assay, vaccinia virus; assay type: cell-based; conditions: data not shown
[12] = system: vesicular stomatitis virus (rhabdoviridae); assay type: cell-based
[13] = system: respiratory syncytial virus (paramyxoviridae); assay: Antiviral assay, respiratory syncytial virus; assay type: cell-based; conditions: data not shown
[14] = system: coxsackie virus B4 (picornaviridae); assay: Antiviral assay, coxsackie virus; assay type: cell-based; conditions: data not shown
[15] = system: para-influenza-3 virus (paramyxoviridae); assay: Antiviral assay, para-influenza virus; assay type: cell-based; conditions: data not shown
reovirus-1 (reoviridae) = assay: Antiviral assay, reovirus; assay type: cell-based; conditions: data not shown
[16] = system: sindbis virus (alphaviridae); assay: Antiviral assay, sindbis virus; assay type: cell-based; conditions: data not shown
[17] = system: feline coronavirus (coronaviridae); assay: Antiviral assay, feline coronavirus; assay type: cell-based; conditions: data not shown
[18] = system: Punta Toro virus (bunyaviridae); assay: Antiviral assay, Punta Toro virus; assay type: cell-based; conditions: data not shown
[19] = Stability in basic and acidic solutions; assay type: physicochemical
[20] = NADPH-dependent metabolic stability in human hepatic microsomes; assay type: in vitro ADME
[21] = NADPH-dependent metabolic stability in dog hepatic microsomes; assay type: in vitro ADME
[22] = NADPH-dependent metabolic stability in rat hepatic microsomes; assay type: in vitro ADME
GSK-4^res replicon = assay: Anti-HCV assay, GSK-4 resistant replicon
BILN-2061^res replicon = assay: Anti-HCV assay, BILN-2061 resistant replicon
2′-C-MeCyt^res replicon = assay: Anti-HCV assay, 2′-C-MeCyt resistant replicon
HuH6 replicons = assay: Anti-HCV replicon assay in HuH6 cells; conditions: Hepatitis C virus, HuH-6, read-out: Anti-HCV activity EC50, HuH6
[23] = system: 4′-Azidocytidine^res replicon; assay: Anti-HCV assay, 4′-azidocytidine resistant replicon
[24] = system: VX-950^res and BILN-2061^res replicon; assay: Anti-HCV assay, VX-950 and BILN-2061 double resistant replicon
[25] = 300 nM, Huh 9-13, data not shown

Which EC50 ([1]; Hepatitis C virus, 72 h, read-out: Anti-HCV activity EC50, J6/JFH) does the source give for `Fc1cccc(-c2nc3ccn(Cc4cc(-c5ccc(Cl)cc5)no4)cc-3n2)c1F` [GS-327073, 5-[[3-(4-chlorophenyl)-5-isoxazolyl]methyl]-2-(2,3-difluorophenyl)-5H-imidazo[4,5-c]pyridine] here?
Its EC50 is 330 ± 140 nM.

What about the “fold higher EC50 for HCV genotype 2a virus than for 1b replicon” value ([1]; versus 1b replicon) of the same compound?
Its value is 100 fold.

And the CC50 (Cytostatic assay)?
Its CC50 is no less than 17000 nM.

What about the selectivity indices ([2]; CC50/EC50) of the same compound?
Its selectivity indices is no less than 340.

And the EC50 ([2]; Hepatitis C virus, GETYPE1, read-out: mean EC50 values, HCV (genotype 1) subgenomic replicon replication)?
Its EC50 is 2 to 50 nM.

And the “cross-resistance with BPIP in anti-BVDV assay” value [3]?
Its value is “cross-resistant”.

And the “fold less potent against BVDV than compound 1” value ([3]; compared to compound 1)?
The value was “about 10 fold”.

And the “combined antiviral activity with 2′-C-MeCyt” value [4]?
Its value is “additive antiviral activity”.

And the “combined antiviral activity with IFNα 2b” value [4]?
Its value is “additive antiviral activity”.

What about the “combined antiviral activity with VX-950” value [4] of the same compound?
Its value is “additive antiviral activity”.

And the “combined antiviral activity with low concentrations of IFNα 2b” value [4]?
The value was “slight synergistic effect”.

And the “combined antiviral activity with ribavirin” value [4]?
Its value is “additive antiviral activity”.

What about the “clearance of replicon, drug alone” value ([5]; 20 × EC50, Huh 9-13) of the same compound?
Its value is “failed to achieve clearance”.

And the “clearance of replicon, combination GS-327073 (5 × EC50) and VX-950 (5 × EC50)” value ([5]; Huh 9-13)?
Its value is “clearance of Huh 9-13 cells from their replicon following one passage”.

And the “passages until clearance of replicon RNA, GS-327073 (20 × EC50) with 2′-C-MeCyt (20 × EC50)” value ([5]; Huh 9-13)?
Its value is 2 passages.

And the “drug resistant replicon in cells surviving rebound conditions” value ([5]; after treatment, addition of G418, data not shown)?
The value was “did not contain drug resistant replicon”.

What about the “clearance of Huh 9-13 cells from their replicon, drug alone” value ([5]; five times EC50, 3 passages) of the same compound?
Its value is “did not achieve complete clearance”.

What about the “activity against yellow fever virus (17D)” value (YFV-17D (flaviviridae)) of the same compound?
The value was “inactive”.

And the “activity against human immunodeficiency virus 1” value (HIV-1 (IIIB))?
Its value is “inactive”.

And the “activity against human immunodeficiency virus 2” value [6]?
The value was “inactive”.

What about the “activity against herpes simplex virus 1” value [7] of the same compound?
Its value is “inactive”.

What about the “activity against herpes simplex virus 2” value [8] of the same compound?
Its value is “inactive”.

And the “activity against influenza virus A” value [9]?
Its value is “inactive”.

And the “activity against influenza virus B” value [10]?
Its value is “inactive”.

And the “activity against vaccinia virus” value [11]?
Its value is “inactive”.

And the “activity against vesicular stomatitis virus” value [12]?
The value was “inactive”.

What about the “activity against respiratory syncitial virus” value [13] of the same compound?
Its value is “inactive”.

What about the “activity against coxsackie virus” value [14] of the same compound?
Its value is “inactive”.

What about the “activity against para-influenza virus” value [15] of the same compound?
Its value is “inactive”.

And the activity against reovirus (reovirus-1 (reoviridae))?
Its activity against reovirus is “inactive”.

What about the “activity against sindbis virus” value [16] of the same compound?
The value was “inactive”.

And the “activity against feline coronavirus” value [17]?
The value was “inactive”.

And the “activity against Punta Toro virus” value [18]?
The value was “inactive”.

What about the “stability in acidic solution” value ([19]; pH 2.2) of the same compound?
The value was “remained stable”.

And the “stability in basic solution” value ([19]; pH 7.3)?
The value was “remained stable”.

What about the microsomal half-time ([20]; human hepatic microsomes, NADPH-dependent) of the same compound?
Its microsomal half-time is 236 min.

What about the predicted hepatic clearance ([20]; human microsomes) of the same compound?
The predicted hepatic clearance was 2.5 mL/min/kg.

And the microsomal half-time ([21]; dog hepatic microsomes, NADPH-dependent)?
The microsomal half-time was 88 min.

What about the predicted hepatic clearance ([21]; dog microsomes) of the same compound?
The predicted hepatic clearance was 6 mL/min/kg.

And the microsomal half-time ([22]; rat hepatic microsomes, NADPH-dependent)?
Its microsomal half-time is 96 min.

What about the predicted hepatic clearance ([22]; rat microsomes) of the same compound?
Its predicted hepatic clearance is 10.5 mL/min/kg.

And the “activity against GSK-4 resistant replicons” value (GSK-4^res replicon)?
The value was “retained wild-type activity”.

What about the EC50 (GSK-4^res replicon; Hepatitis C virus, read-out: EC50, GSK-4^res) of the same compound?
The EC50 was 11 ± 1 nM.

What about the “fold resistance, GSK-4^res” value (GSK-4^res replicon; versus wild-type replicon) of the same compound?
The value was “(5.5)”.

And the “activity against BILN-2061 resistant replicons” value (BILN-2061^res replicon)?
Its value is “retained wild-type activity”.

And the EC50 (BILN-2061^res replicon; Hepatitis C virus, read-out: EC50, BILN-2061^res)?
Its EC50 is 9 ± 5 nM.

And the “fold resistance, BILN-2061^res” value (BILN-2061^res replicon; versus wild-type replicon)?
Its value is “(4.5)”.

And the “activity against 2′-C-MeCyt resistant replicons” value (2′-C-MeCyt^res replicon)?
Its value is “retained wild-type activity”.

What about the “fate of cells containing 2′-C-MeCyt^res replicon under G418 pressure” value (2′-C-MeCyt^res replicon; [25]) of the same compound?
Its value is “died following only one passage”.

And the EC50 (2′-C-MeCyt^res replicon; Hepatitis C virus, read-out: EC50, 2′-C-MeCyt^res)?
The EC50 was 8 ± 6 nM.

What about the “fold resistance, 2′-C-MeCyt^res” value (2′-C-MeCyt^res replicon; versus wild-type replicon) of the same compound?
The value was “(4.0)”.

What about the EC50 (HuH6 replicons) of the same compound?
Its EC50 is 50 ± 20 nM.

And the “activity against 4′-azidocytidine resistant replicons” value [23]?
Its value is “retained wild-type activity”.

And the EC50 ([23]; Hepatitis C virus, read-out: EC50, 4′-Azidocytidine^res)?
Its EC50 is 7.2 ± 0.8 nM.

What about the “fold resistance, 4′-Azidocytidine^res” value ([23]; versus wild-type replicon) of the same compound?
Its value is “(3.6)”.

And the “activity against BILN-2061/VX-950 double resistant replicons” value [24]?
Its value is “retained wild-type activity”.

What about the “fate of cells containing VX-950/BILN-2061^res replicon under G418 pressure” value [24, 25] of the same compound?
The value was “died following only one passage”.

And the “fold resistance, VX-950^res and BILN-2061^res” value ([24]; versus wild-type replicon)?
The value was “(2.0)”.
